From the supplement of paper PMC10307832

Legend:
Test in all cases: relative viability (nuclei count vs DMSO), 5 days (fraction); higher = more cells survive
[1] = test system: NCI-H2009
How it was run: (§1)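 After 5 days of treatment, lung cancer cells in 1536-well plates were fixed and stained in a single step (final 0.05% Triton X-100, 1% formaldehyde, 1 ug/ml Hoechst) and their nuclei counted on 4× images. Treatment had been applied by pin tool the day after seeding as one drug alone or as a fixed anchor-drug dose with five library-drug doses (not always all listed) in √10 steps. Relative viability is the nuclei count of treated wells divided by that of vehicle wells, and values are medians of duplicate plates.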

[2] = test system: 201T
How it was run: as §1

[3] = test system: NCI-H650
How it was run: as §1

[4] = test system: NCI-H1650
How it was run: as §1

[5] = test system: HCC-44
How it was run: as §1

[6] = test system: RERF-LC-KJ
How it was run: as §1

[7] = test system: NCI-H1734
How it was run: as §1

[8] = test system: NCI-H441
How it was run: as §1

[9] = test system: HCC-15
How it was run: as §1

[10] = test system: LCLC-97TM1
How it was run: as §1

[11] = test system: NCI-H2126
How it was run: as §1

[12] = test system: A-427
How it was run: as §1

[13] = test system: HCC-366
How it was run: as §1

[14] = test system: NCI-H1993
How it was run: as §1

[15] = test system: SW 1573
How it was run: as §1

[16] = test system: HARA
How it was run: as §1

[17] = test system: NCI-H460
How it was run: as §1

[18] = test system: LOU-NH91
How it was run: as §1

[19] = test system: HCC-78
How it was run: as §1

[20] = test system: COR-L23
How it was run: as §1

[21] = test system: ChaGo-K-1
How it was run: as §1

[22] = test system: NCI-H2023
How it was run: as §1

[23] = test system: LCLC-103H
How it was run: as §1

O=c1[nH]c2ccccc2n1C1CCN(CCCC(c2ccc(F)cc2)c2ccc(F)cc2)CC1 [Pimozide] + CS(=O)(=O)N1CCN(Cc2cc3nc(-c4cccc5[nH]ncc45)nc(N4CCOCC4)c3s2)CC1 [Pictilisib] (partner 1 µM)
relative viability ([1]; first compound 0.08 µM): 0.853 | relative viability ([1]; first compound 0.253 µM): 0.923 | relative viability ([1]; first compound 0.8 µM): 0.786 | relative viability ([1]; first compound 2.53 µM): 0.769 | relative viability ([1]; first compound 8 µM): 0.575 | relative viability ([2]; first compound 0.08 µM): 0.69 | relative viability ([2]; first compound 0.253 µM): 0.613 | relative viability ([2]; first compound 0.8 µM): 0.6 | relative viability ([2]; first compound 2.53 µM): 0.669 | relative viability ([2]; first compound 8 µM): 0.599 | relative viability ([3]; first compound 0.08 µM): 0.851 | relative viability ([3]; first compound 0.253 µM): 0.852 | relative viability ([3]; first compound 0.8 µM): 0.878 | relative viability ([3]; first compound 2.53 µM): 0.92 | relative viability ([3]; first compound 8 µM): 1.09 | relative viability ([4]; first compound 0.08 µM): 0.589 | relative viability ([4]; first compound 0.253 µM): 0.489 | relative viability ([4]; first compound 0.8 µM): 0.461 | relative viability ([4]; first compound 2.53 µM): 0.547 | relative viability ([4]; first compound 8 µM): 0.182 | relative viability ([5]; first compound 0.08 µM): 0.58 | relative viability ([5]; first compound 0.253 µM): 0.695 | relative viability ([5]; first compound 0.8 µM): 0.565 | relative viability ([5]; first compound 2.53 µM): 0.576 | relative viability ([5]; first compound 8 µM): 0.558 | relative viability ([6]; first compound 0.08 µM): 0.597 | relative viability ([6]; first compound 0.253 µM): 0.524 | relative viability ([6]; first compound 0.8 µM): 0.522 | relative viability ([6]; first compound 2.53 µM): 0.505 | relative viability ([6]; first compound 8 µM): 0.452 | relative viability ([7]; first compound 0.08 µM): 0.45 | relative viability ([7]; first compound 0.253 µM): 0.444 | relative viability ([7]; first compound 0.8 µM): 0.489 | relative viability ([7]; first compound 2.53 µM): 0.411 | relative viability ([7]; first compound 8 µM): 0.46 | relative viability ([8]; first compound 0.08 µM): 0.593 | relative viability ([8]; first compound 0.253 µM): 0.445 | relative viability ([8]; first compound 0.8 µM): 0.491 | relative viability ([8]; first compound 2.53 µM): 0.447 | relative viability ([8]; first compound 8 µM): 0.344 | relative viability ([9]; first compound 0.08 µM): 0.809 | relative viability ([9]; first compound 0.253 µM): 0.767 | relative viability ([9]; first compound 0.8 µM): 0.616 | relative viability ([9]; first compound 2.53 µM): 0.709 | relative viability ([9]; first compound 8 µM): 0.749 | relative viability ([10]; first compound 0.08 µM): 0.194 | relative viability ([10]; first compound 0.253 µM): 0.183 | relative viability ([10]; first compound 0.8 µM): 0.225 | relative viability ([10]; first compound 2.53 µM): 0.18 | relative viability ([10]; first compound 8 µM): 0.119 | relative viability ([11]; first compound 0.08 µM): 0.437 | relative viability ([11]; first compound 0.253 µM): 0.468 | relative viability ([11]; first compound 0.8 µM): 0.512 | relative viability ([11]; first compound 2.53 µM): 0.499 | relative viability ([11]; first compound 8 µM): 0.539 | relative viability ([12]; first compound 0.08 µM): 0.723 | relative viability ([12]; first compound 0.253 µM): 0.729 | relative viability ([12]; first compound 0.8 µM): 0.538 | relative viability ([12]; first compound 2.53 µM): 0.68 | relative viability ([12]; first compound 8 µM): 0.668 | relative viability ([13]; first compound 0.08 µM): 0.164 | relative viability ([13]; first compound 0.253 µM): 0.154 | relative viability ([13]; first compound 0.8 µM): 0.165 | relative viability ([13]; first compound 2.53 µM): 0.0834 | relative viability ([13]; first compound 8 µM): 0.118 | relative viability ([14]; first compound 0.08 µM): 0.751 | relative viability ([14]; first compound 0.253 µM): 0.902 | relative viability ([14]; first compound 0.8 µM): 0.778 | relative viability ([14]; first compound 2.53 µM): 0.91 | relative viability ([14]; first compound 8 µM): 0.846 | relative viability ([15]; first compound 0.08 µM): 0.534 | relative viability ([15]; first compound 0.253 µM): 0.462 | relative viability ([15]; first compound 0.8 µM): 0.47 | relative viability ([15]; first compound 2.53 µM): 0.449 | relative viability ([15]; first compound 8 µM): 0.416 | relative viability ([16]; first compound 0.08 µM): 0.252 | relative viability ([16]; first compound 0.253 µM): 0.423 | relative viability ([16]; first compound 0.8 µM): 0.595 | relative viability ([16]; first compound 2.53 µM): 0.351 | relative viability ([16]; first compound 8 µM): 0.368 | relative viability ([17]; first compound 0.08 µM): 0.236 | relative viability ([17]; first compound 0.253 µM): 0.385 | relative viability ([17]; first compound 0.8 µM): 0.386 | relative viability ([17]; first compound 2.53 µM): 0.353 | relative viability ([17]; first compound 8 µM): 0.366 | relative viability ([18]; first compound 0.08 µM): 0.476 | relative viability ([18]; first compound 0.253 µM): 0.489 | relative viability ([18]; first compound 0.8 µM): 0.521 | relative viability ([18]; first compound 2.53 µM): 0.546 | relative viability ([18]; first compound 8 µM): 0.509 | relative viability ([19]; first compound 0.08 µM): 0.214 | relative viability ([19]; first compound 0.253 µM): 0.244 | relative viability ([19]; first compound 0.8 µM): 0.187 | relative viability ([19]; first compound 2.53 µM): 0.19 | relative viability ([19]; first compound 8 µM): 0.202 | relative viability ([20]; first compound 0.08 µM): 0.705 | relative viability ([20]; first compound 0.253 µM): 0.75 | relative viability ([20]; first compound 0.8 µM): 0.638 | relative viability ([20]; first compound 2.53 µM): 0.702 | relative viability ([20]; first compound 8 µM): 0.632 | relative viability ([21]; first compound 0.08 µM): 0.636 | relative viability ([21]; first compound 0.253 µM): 0.614 | relative viability ([21]; first compound 0.8 µM): 0.694 | relative viability ([21]; first compound 2.53 µM): 0.762 | relative viability ([21]; first compound 8 µM): 0.569 | relative viability ([22]; first compound 0.08 µM): 0.214 | relative viability ([22]; first compound 0.253 µM): 0.24 | relative viability ([22]; first compound 0.8 µM): 0.212 | relative viability ([22]; first compound 2.53 µM): 0.223 | relative viability ([22]; first compound 8 µM): 0.202 | relative viability ([23]; first compound 0.08 µM): 0.593 | relative viability ([23]; first compound 0.253 µM): 0.513 | relative viability ([23]; first compound 0.8 µM): 0.466 | relative viability ([23]; first compound 2.53 µM): 0.574 | relative viability ([23]; first compound 8 µM): 0.528
